Assay results: patent US12478066B2, “Pesticidal mixtures” (BASF SE, priority 2019, dated 2025)

What was measured:
Assay type in all cases: cell-based
Rhynchosporium secalis = test: Microtest: activity against Rhynchosporium secalis (RHYNSE); conditions: 7 days after inoculation
Procedure: (§1) The active compounds were formulated separately as a stock solution having a concentration of 10000 ppm in dimethyl sulfoxide.
(§2) The stock solutions were mixed according to the ratio, pipetted onto a micro titer plate (MTP) and diluted with water to the stated concentrations. A spore suspension of Rhynchosporium secalis in an aqueous biomalt or yeast-bactopeptone-glycerine or DOB solution was then added. The plates were placed in a water vapor-saturated chamber at a temperature of 18° C. Using an absorption photometer, the MTPs were measured at 405 nm 7 days after the inoculation.
(§3) The measured parameters were compared to the growth of the active compound-free control variant (100%) and the fungus-free blank value to determine the relative growth in % of the pathogens in the respective active compounds.
(§4) These percentages were converted into efficacies.
(§5) An efficacy of 0 means that the growth level of the pathogens corresponds to that of the untreated control; an efficacy of 100 means that the pathogens were not growing.
(§6) The expected efficacies of active compound mixtures were determined using Colby's formula [R. S. Colby, “Calculating synergistic and antagonistic responses of herbicide combinations”, Weeds 15, 20-22 (1967)] and compared with the observed efficacies.

[1] = test system: Qoi resistant isolate of Pyrenophora teres; test: Microtiter test: activity against net blotch Pyrenophora teres on barley (PYRNTE), Qoi resistant isolate; conditions: 0.063 ppm, 7 days after inoculation
Procedure: as §1
as §2, with “a Qoi resistant isolate of Pyrenophora teres” for “Rhynchosporium secalis”
as §3, §4, §5, §6

Leptosphaeria nodorum = test: Microtest: activity against wheat leaf spots caused by Leptosphaeria nodorum (LEPTNO); conditions: 7 days after inoculation
Procedure: as §1
as §2, with “Leptosphaeria nodorum” for “Rhynchosporium secalis”
as §3, §4, §5, §6

Microdochium nivale = test: Microtest: activity against Microdochium nivale (MONGNI); conditions: 7 days after inoculation
Procedure: as §1
as §2, with “Microdochium nivale” for “Rhynchosporium secalis”
as §3, §4, §5, §6

[2] = test system: Qoi resistant isolate of Septoria tritici; test: Microtest: activity against leaf blotch on wheat caused by Septoria tritici (SEPTTR), Qoi resistant isolate; conditions: 7 days after inoculation
Procedure: as §1
as §2, with “a Qoi resistant isolate of Septoria tritici” for “Rhynchosporium secalis”
as §3, §4, §5, §6

| Structure (SMILES) | Observed efficacy (Rhynchosporium secalis; 0.063 ppm) | Observed efficacy [1] | Observed efficacy (Leptosphaeria nodorum; 0.004 ppm) | Observed efficacy (Microdochium nivale; 0.004 ppm) | Observed efficacy (Microdochium nivale; 0.016 ppm) | Observed efficacy (Microdochium nivale; 0.063 ppm) | Observed efficacy ([2]; 0.016 ppm) | Observed efficacy ([2]; 0.063 ppm) | Observed efficacy (Rhynchosporium secalis; 0.016 ppm) | Observed efficacy (Leptosphaeria nodorum; 0.016 ppm) | Observed efficacy ([2]; 0.004 ppm) |
| --- | --- | --- | --- | --- | --- | --- | --- | --- | --- | --- | --- |
| COc1ccnc(C(=O)N[C@@H](C)C(=O)O[C@@H](C)C(c2ccc(F)cc2)c2ccc(F)cc2)c1OC(C)=O [Florylpicoxamid, [(1S)-2,2-bis(4-fluorophenyl)-1-methyl-ethyl] (2S)-2-[(3-acetoxy-4-methoxy-pyridine-2-carbonyl)amino]propanoate] | 55 | 9 | 13 | 3 | 18 | 44 | 0 | 12 | – | – | – |
| Cc1cccc(-n2nnn(C)c2=O)c1COc1ccn(-c2ccc(Cl)cc2)n1 [Metyltetraprol, 1-[2-[[1-(4-chlorophenyl)pyrazol-3-yl]oxymethyl]-3-methyl-phenyl]-4-methyl-tetrazol-5-one] | – | 11 | – | 1 | 32 | – | 0 | 1 | 14 | 49 | 1 |
